# Data published in PubChem BioAssay (NCI).
#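 Assay format: 96-well plates, 48-hour exposure. At the GI50, growth is halved. TGI denotes the concentration required for complete inhibition of growth.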
# Tests used:
# Test in all cases: inhibition of tumour cell growth, NCI panel, 48 h
# SK-MEL-28 melanoma = tested on: SK-MEL-28 melanoma
# DU-145 prostate = tested on: DU-145 prostate
# HS 578T breast = tested on: HS 578T breast
# NCI-H226 lung = tested on: NCI-H226 lung
# NCI-H23 lung = tested on: NCI-H23 lung
# SK-MEL-2 melanoma = tested on: SK-MEL-2 melanoma
# SNB-75 CNS = tested on: SNB-75 CNS
# CAKI-1 renal = tested on: CAKI-1 renal
# NCI-H522 lung = tested on: NCI-H522 lung
# HL-60(TB) leukemia = tested on: HL-60(TB) leukemia
# SF-268 CNS = tested on: SF-268 CNS
# MOLT-4 leukemia = tested on: MOLT-4 leukemia
# MDA-MB-435 = tested on: MDA-MB-435
# U251 CNS = tested on: U251 CNS
# HCT-15 colon = tested on: HCT-15 colon
# RPMI-8226 leukemia = tested on: RPMI-8226 leukemia
# SNB-19 CNS = tested on: SNB-19 CNS
# MALME-3M melanoma = tested on: MALME-3M melanoma
# KM12 colon = tested on: KM12 colon
# OVCAR-5 ovarian = tested on: OVCAR-5 ovarian
# ACHN renal = tested on: ACHN renal
# SF-295 CNS = tested on: SF-295 CNS
# TK-10 renal = tested on: TK-10 renal
# COLO 205 colon = tested on: COLO 205 colon
# SW-620 colon = tested on: SW-620 colon
# HCT-116 colon = tested on: HCT-116 colon
# MCF7 breast = tested on: MCF7 breast
# EKVX NSCLC = tested on: EKVX NSCLC
structure (smiles),measurement,setting,value
COc1ccc(C(=O)COc2ccc(/C=C3\COc4ccc(OC)cc4C3=O)cc2)cc1,GI50,SK-MEL-28 melanoma,19.9 µM
same,TGI,SK-MEL-28 melanoma,56.9 µM
same,GI50,DU-145 prostate,31 µM
same,TGI,DU-145 prostate,> 100 µM
same,GI50,HS 578T breast,10.7 µM
same,TGI,HS 578T breast,34.2 µM
same,GI50,NCI-H226 lung,54.7 µM
same,TGI,NCI-H226 lung,> 100 µM
same,GI50,NCI-H23 lung,9.67 µM
same,TGI,NCI-H23 lung,32.8 µM
same,GI50,SK-MEL-2 melanoma,37.5 µM
same,TGI,SK-MEL-2 melanoma,> 100 µM
same,GI50,SNB-75 CNS,20 µM
same,TGI,SNB-75 CNS,69.9 µM
same,GI50,CAKI-1 renal,32.4 µM
same,TGI,CAKI-1 renal,> 100 µM
same,GI50,NCI-H522 lung,16.7 µM
same,TGI,NCI-H522 lung,74.5 µM
same,GI50,HL-60(TB) leukemia,11 µM
same,TGI,HL-60(TB) leukemia,62.8 µM
same,GI50,SF-268 CNS,23.7 µM
same,TGI,SF-268 CNS,60.5 µM
same,GI50,MOLT-4 leukemia,9.36 µM
same,TGI,MOLT-4 leukemia,51.6 µM
same,GI50,MDA-MB-435,6.46 µM
same,TGI,MDA-MB-435,78.5 µM
same,GI50,U251 CNS,13.4 µM
same,TGI,U251 CNS,31.2 µM
same,GI50,HCT-15 colon,22.3 µM
same,TGI,HCT-15 colon,> 100 µM
same,GI50,RPMI-8226 leukemia,3.47 µM
same,TGI,RPMI-8226 leukemia,22.6 µM
same,GI50,SNB-19 CNS,29.8 µM
same,TGI,SNB-19 CNS,> 100 µM
same,GI50,MALME-3M melanoma,57.2 µM
same,TGI,MALME-3M melanoma,> 100 µM
same,GI50,KM12 colon,8.72 µM
same,TGI,KM12 colon,85.8 µM
same,GI50,OVCAR-5 ovarian,30.2 µM
same,TGI,OVCAR-5 ovarian,86.9 µM
same,GI50,ACHN renal,29.7 µM
same,TGI,ACHN renal,> 100 µM
same,GI50,SF-295 CNS,14.5 µM
same,TGI,SF-295 CNS,38.1 µM
same,GI50,TK-10 renal,19.1 µM
same,TGI,TK-10 renal,48.7 µM
same,GI50,COLO 205 colon,51.8 µM
same,TGI,COLO 205 colon,> 100 µM
same,GI50,SW-620 colon,4.99 µM
same,TGI,SW-620 colon,> 100 µM
same,GI50,HCT-116 colon,11.1 µM
same,TGI,HCT-116 colon,31.1 µM
same,GI50,MCF7 breast,3.1 µM
same,TGI,MCF7 breast,18.6 µM
same,GI50,EKVX NSCLC,41.2 µM
